pKd: −log10 of the molar value. Where two headings read alike, the source gives them in different places. Positions of bridges follow the written chain, without caps; N, C: chain ends. Non-standard residues stand in square brackets, D forms with d. Residues, ends and D or L forms follow the SMILES beside them. *: point of attachment. Nle(6-morpholino) = N[C@@H](CCCCN1CCOCC1)C(=O)O; Phe(3-COOH) = N[C@@H](Cc1cccc(C(=O)O)c1)C(=O)O; Trp(7-aza) = N[C@@H](Cc1c[nH]c2ncccc12)C(=O)O; NH(CH2CH2O)8Me = COCCOCCOCCOCCOCCOCCOCCOCCN*; NMePhe(3-Cl) = CN[C@@H](Cc1cccc(Cl)c1)C(=O)O; 3Pal(6-NH2) = Nc1ccc(C[C@H](N)C(=O)O)cn1; NMeY = CN[C@@H](Cc1ccc(O)cc1)C(=O)O; 3Pal = N[C@@H](Cc1cccnc1)C(=O)O; PEG4 = NCCOCCOCCOCCOCCC(=O)O; Carboxymethyl = O=C(O)C*
Target: T1, human transferrin receptor (hTfR) (Homo sapiens, UniProt P02786)
T1 construct: made in house
Test: Evaluation of molecular interaction between transferrin receptor (hTfR) and peptide using surface plasmon resonance (SPR)
Format: binding
Summary of the method: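 Binding kinetics of peptides to immobilized recombinant human TfR dimer were measured by SPR at 5–100 nM in a single-cycle format, with KD obtained from curve fitting.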

[1] = surface plasmon resonance, binding to hTfR, KD class symbol, read-out: SPR (KD value)
[2] = peptide with linker, surface plasmon resonance, read-out: SPR (KD class for binding to hTfR)

T1 sequence (P02786 89-760 limits assumed): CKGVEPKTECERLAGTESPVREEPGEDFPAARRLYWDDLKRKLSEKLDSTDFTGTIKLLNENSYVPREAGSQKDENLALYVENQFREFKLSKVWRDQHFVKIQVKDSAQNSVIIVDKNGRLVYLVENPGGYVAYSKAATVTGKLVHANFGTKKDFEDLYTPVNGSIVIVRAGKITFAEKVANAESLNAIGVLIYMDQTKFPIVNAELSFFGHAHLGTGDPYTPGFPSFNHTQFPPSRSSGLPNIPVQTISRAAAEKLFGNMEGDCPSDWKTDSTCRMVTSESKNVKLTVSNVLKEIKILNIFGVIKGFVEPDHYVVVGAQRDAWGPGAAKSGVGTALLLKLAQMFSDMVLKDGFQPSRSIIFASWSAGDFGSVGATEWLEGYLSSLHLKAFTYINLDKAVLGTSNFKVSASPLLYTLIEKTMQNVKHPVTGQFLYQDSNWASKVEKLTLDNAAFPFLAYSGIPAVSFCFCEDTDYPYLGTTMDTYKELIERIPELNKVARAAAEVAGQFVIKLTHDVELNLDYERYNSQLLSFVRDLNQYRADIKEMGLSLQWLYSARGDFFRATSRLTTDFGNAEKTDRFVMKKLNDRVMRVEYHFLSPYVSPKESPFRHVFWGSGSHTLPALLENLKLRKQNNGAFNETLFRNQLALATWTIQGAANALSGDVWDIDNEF

Compound: CC[C@H](C)[C@@H]1NC(=O)[C@H](Cc2ccc(OC)cc2)NC(=O)[C@H](Cc2ccc(O)cc2)NC(=O)[C@H](CC(N)=O)NC(=O)[C@H](Cc2c[nH]c3ccccc23)NC(=O)[C@H](C(C)C)NC(=O)[C@H](Cc2ccccc2)N(C)C(=O)[C@H](C(C)C)NC(=O)[C@H](C)NC(=O)CSC[C@@H](C(=O)NCCOCCOCCOCCOCCC(N)=O)NC(=O)[C@H](Cc2ccc(O)cc2)N(C)C(=O)[C@H](Cc2ccccc2)NC(=O)[C@H](CCCNC(=N)N)NC(=O)[C@H](CCCNC(=N)N)N(C)C(=O)[C@H]([C@@H](C)CC)NC1=O [compound 17]
- pKd [1]: 7.00 to 9.00

Compound: CC[C@H](C)[C@@H]1NC(=O)[C@H](Cc2ccc(OCC(=O)O)cc2)NC(=O)[C@H](Cc2ccc(N)nc2)NC(=O)[C@H](CC(N)=O)NC(=O)[C@H](Cc2c[nH]c3ccccc23)NC(=O)[C@H](C(C)C)NC(=O)[C@H](Cc2cccc(Cl)c2)N(C)C(=O)[C@H](C(C)C)NC(=O)[C@H](C)NC(=O)CSC[C@@H](C(=O)NCCOCCOCCOCCOCCC(N)=O)NC(=O)[C@H](Cc2ccc(O)cc2)N(C)C(=O)[C@H](Cc2cccc(C(=O)O)c2)NC(=O)[C@H](CCCNC(=N)N)NC(=O)[C@H](CCC(=O)NCCOCCOCCOCCOCCOCCOCCOCCOC)NC(=O)[C@H]([C@@H](C)CC)NC1=O [compound 238] ({CH2CO}-AV[NMePhe(3-Cl)]VWN[3Pal(6-NH2)]Y(Carboxymethyl)IIE(NH(CH2CH2O)8Me)R[Phe(3-COOH)][NMeY]C[PEG4]-NH2; thioether N-15)
- pKd [2]: 7.00 to 9.00

Compound: CC[C@H](C)[C@@H]1NC(=O)[C@H](Cc2ccc(OCC(=O)O)cc2)NC(=O)[C@H](Cc2ccc(O)cc2)NC(=O)[C@H](CC(N)=O)NC(=O)[C@H](Cc2c[nH]c3ccccc23)NC(=O)[C@H](C(C)C)NC(=O)[C@H](Cc2cccc(Cl)c2)N(C)C(=O)[C@H](C(C)C)NC(=O)[C@H](C)NC(=O)CSC[C@@H](C(=O)NCCOCCOCCOCCOCCC(N)=O)NC(=O)[C@H](Cc2ccc(O)cc2)N(C)C(=O)[C@H](Cc2ccccc2)NC(=O)[C@H](CCCNC(=N)N)NC(=O)[C@H](CCC(=O)NCCOCCOCCOCCOCCOCCOCCOCCOC)NC(=O)[C@H]([C@@H](C)CC)NC1=O [compound 112]
- pKd [1]: > 9.00

Compound: CC[C@H](C)[C@@H]1NC(=O)[C@H](Cc2cccnc2)NC(=O)[C@H](Cc2ccc(N)nc2)NC(=O)[C@H](CC(N)=O)NC(=O)[C@H](Cc2c[nH]c3ccccc23)NC(=O)[C@H](C(C)C)NC(=O)[C@H](Cc2cccc(Cl)c2)N(C)C(=O)[C@H](C(C)C)NC(=O)[C@H](C)NC(=O)CSC[C@@H](C(=O)NCCOCCOCCOCCOCCC(N)=O)NC(=O)[C@H](Cc2ccc(O)cc2)N(C)C(=O)[C@H](Cc2cccc(C(=O)O)c2)NC(=O)[C@H](CCC(=O)NCCOCCOCCOCCOCCOCCOCCOCCOC)NC(=O)[C@H](CCCNC(=N)N)NC(=O)[C@H]([C@@H](C)CC)NC1=O [compound 97] ({CH2CO}-AV[NMePhe(3-Cl)]VWN[3Pal(6-NH2)][3Pal]IIRE(NH(CH2CH2O)8Me)[Phe(3-COOH)][NMeY]C[PEG4]-NH2; thioether N-15)
- pKd [1]: 7.00 to 9.00

Compound: CC[C@H](C)[C@@H]1NC(=O)[C@H](Cc2ccc(OCC(=O)O)cc2)NC(=O)[C@H](Cc2ccc(O)cc2)NC(=O)[C@H](CC(N)=O)NC(=O)[C@H](Cc2cn(CC(=O)O)c3ccccc23)NC(=O)[C@H](C(C)C)NC(=O)[C@H](Cc2cccc(Cl)c2)N(C)C(=O)[C@H](C(C)C)NC(=O)[C@H](C)NC(=O)CSC[C@@H](C(=O)NCCOCCOCCOCCOCCC(N)=O)NC(=O)[C@H](Cc2ccc(O)cc2)N(C)C(=O)[C@H](Cc2ccccc2)NC(=O)[C@H](CCCNC(=N)N)NC(=O)[C@H](CCC(=O)NCCOCCOCCOCCOC)NC(=O)[C@H]([C@@H](C)CC)NC1=O [compound 110]
- pKd [1]: 7.00 to 9.00

Compound: CC[C@H](C)[C@@H]1NC(=O)[C@H](Cc2ccc(OC)cc2)NC(=O)[C@H](Cc2ccc(O)cc2)NC(=O)[C@H](CC(N)=O)NC(=O)[C@H](Cc2c[nH]c3ccccc23)NC(=O)[C@H](C(C)C)NC(=O)[C@H](Cc2ccccc2)N(C)C(=O)[C@H](C(C)C)NC(=O)[C@H](C)NC(=O)CSC[C@@H](C(=O)NCCOCCOCCOCCOCCC(N)=O)NC(=O)[C@H](Cc2ccc(O)cc2)N(C)C(=O)[C@H](Cc2ccccc2)NC(=O)[C@@H](CCCNC(=N)N)NC(=O)[C@H](CCCNC(=N)N)NC(=O)[C@H]([C@@H](C)CC)NC1=O [compound 15]
- pKd [1]: 7.00 to 9.00

Compound: CC[C@H](C)[C@@H]1NC(=O)[C@H](Cc2ccc(OC)cc2)NC(=O)[C@H](Cc2ccc(O)cc2)NC(=O)[C@H](CC(N)=O)NC(=O)[C@H](Cc2c[nH]c3ncccc23)NC(=O)[C@H](C(C)C)NC(=O)[C@H](Cc2cccc(Cl)c2)N(C)C(=O)[C@H](C(C)C)NC(=O)[C@H](C)NC(=O)CSC[C@@H](C(=O)NCCOCCOCCOCCOCCC(N)=O)NC(=O)[C@H](Cc2ccc(O)cc2)N(C)C(=O)[C@H](CCC(=O)NCCOCCOCCOCCOCCOCCOCCOCCOC)NC(=O)[C@H](CCCCN2CCOCC2)NC(=O)[C@H](CCC(=O)NCCOCCOCCOCCOCCOCCOCCOCCOC)NC(=O)[C@H]([C@@H](C)CC)NC1=O [compound 235] ({CH2CO}-AV[NMePhe(3-Cl)]V[Trp(7-aza)]NYY(Me)IIE(NH(CH2CH2O)8Me)[Nle(6-morpholino)]E(NH(CH2CH2O)8Me)[NMeY]C[PEG4]-NH2; thioether N-15)
- pKd [2]: 7.00 to 9.00

Compound: CC[C@H](C)[C@@H]1NC(=O)[C@H](Cc2ccc(OC)cc2)NC(=O)[C@H](Cc2ccc(O)cc2)NC(=O)[C@H](CC(N)=O)NC(=O)[C@H](Cc2c[nH]c3ccccc23)N(C)C(=O)[C@H](C(C)C)NC(=O)[C@H](Cc2ccc(F)cc2)N(C)C(=O)[C@H](C(C)C)NC(=O)[C@H](C)NC(=O)CSC[C@@H](C(=O)NCCOCCOCCOCCOCCC(N)=O)NC(=O)[C@H](Cc2ccc(O)cc2)N(C)C(=O)[C@H](Cc2ccccc2)NC(=O)[C@@H](CCCNC(=N)N)NC(=O)[C@H](CCCNC(=N)N)N(C)C(=O)[C@H]([C@@H](C)CC)NC1=O [compound 30]
- pKd [1]: 7.00 to 9.00

Compound: 894_3181 (AVFVWNYFIIEEFYC; cyclised or stapled)
- SPR (KD class for binding to hTfR by SPR, peptide with the linker shown in the same line, 'low signal indicates no activity'): Low signal

Compound: CC[C@H](C)[C@@H]1NC(=O)[C@H](Cc2ccc(OCC(=O)O)cc2)NC(=O)[C@H](Cc2ccc(O)cc2)NC(=O)[C@H](CC(N)=O)NC(=O)[C@H](Cc2c[nH]c3ccccc23)NC(=O)[C@H](C(C)C)NC(=O)[C@H](Cc2cccc(Cl)c2)N(C)C(=O)[C@H](C(C)C)NC(=O)[C@H](C)NC(=O)CSC[C@@H](C(=O)NCCOCCOCCOCCOCCC(N)=O)NC(=O)[C@H](Cc2ccc(O)cc2)N(C)C(=O)[C@H](Cc2ccccc2)NC(=O)[C@H](CCCNC(=N)N)NC(=O)[C@H](CCCNC(=N)N)NC(=O)[C@H]([C@@H](C)CC)NC1=O [compound 109]
- pKd [1]: > 9.00

Compound: CC[C@H](C)[C@@H]1NC(=O)[C@H](Cc2ccc(OCC(=O)O)cc2)NC(=O)[C@H](Cc2ccc(N)nc2)NC(=O)[C@H](CC(N)=O)NC(=O)[C@H](Cc2c[nH]c3ccccc23)NC(=O)[C@H](C(C)C)NC(=O)[C@H](Cc2cccc(Cl)c2)N(C)C(=O)[C@H](C(C)C)NC(=O)[C@H](C)NC(=O)CSC[C@@H](C(=O)NCCOCCOCCOCCOCCC(N)=O)NC(=O)[C@H](Cc2ccc(O)cc2)N(C)C(=O)[C@H](Cc2ccccc2)NC(=O)[C@H](CCCNC(=N)N)NC(=O)[C@H](CCCNC(=N)N)NC(=O)[C@H]([C@@H](C)CC)NC1=O [894_0358] ({CH2CO}-AV[NMePhe(3-Cl)]VWN[3Pal(6-NH2)]Y(Carboxymethyl)IIRRF[NMeY]C[PEG4]-NH2; thioether N-15)
- pKd (KD class for binding to hTfR by SPR, peptide with the linker shown in the same line, 'low signal indicates no activity', read-out: SPR): 7.00 to 9.00
